≈ marks a conversion by molar mass, not a printed value. Calls of active or inactive are those of the source. No cut-off for these calls is given here.
How the values were obtained:
Type in all cases: functional
[1] = tested on: Mycobacterium tuberculosis; assay: Antimycobacterial activity against Mycobacterium tuberculosis H37Rv ATCC 27294 by microplate alamar blue assay
Trichophyton tonsurans = assay: Antifungal activity against Trichophyton tonsurans NCPF 245 after 7 days by microbroth dilution method; details: NCPF 245, 168 h, read-out: MIC100
Pichia kudriavzevii = assay: Antifungal activity against Candida krusei ATCC 6258 after 48 hrs by microbroth dilution method; details: ATCC 6258, 48 h
Trichophyton erinacei = assay: Antifungal activity against Trichophyton mentagrophytes var. erinacei NCPF 375 after 7 days by microbroth dilution method; details: NCPF 375, 168 h, read-out: MIC100
Nannizzia gypsea = assay: Antifungal activity against Microsporum gypseum NCPF 580 after 7 days by microbroth dilution method; details: NCPF 580, 168 h, read-out: MIC100
Escherichia coli = assay: Antibacterial activity against Escherichia coli ATCC 25922 after 16 to 20 hrs by microbroth dilution method
Candida albicans = assay: Antifungal activity against Candida albicans ATCC 10231 after 48 hrs by microbroth dilution method; details: ATCC 10231, 48 h
Candida parapsilosis = assay: Antifungal activity against Candida parapsilosis ATCC 22019 after 48 hrs by microbroth dilution method; details: Lodderomyces parapsilosis, ATCC 22019, 48 h
Pseudomonas aeruginosa = assay: Antibacterial activity against Pseudomonas aeruginosa ATCC 27853 after 16 to 20 hrs by microbroth dilution method
Staphylococcus aureus = assay: Antibacterial activity against Staphylococcus aureus ATCC 29213 after 16 to 20 hrs by microbroth dilution method
[2] = Mycobacterium tuberculosis, H37Rv ATCC 27294

Row | Compound | inhibition (INH) [1] [%] | MIC ([1]; Mycobacterium tuberculosis, H37Rv ATCC 27294, read-out: MIC100) [µg/mL] | MIC (Trichophyton tonsurans) [µg/mL] | MIC (Pichia kudriavzevii) [µg/mL] | MIC (Trichophyton erinacei) [µg/mL] | MIC (Nannizzia gypsea) [µg/mL] | MIC (Escherichia coli) [µg/mL] | inhibition [1] | MIC90 [1, 2] [µg/mL] | MIC (Candida albicans) [µg/mL] | MIC (Candida parapsilosis) [µg/mL] | MIC (Pseudomonas aeruginosa) [µg/mL] | MIC (Staphylococcus aureus) [µg/mL]
1 | CO[C@H]1/C=C/O[C@@]2(C)Oc3c(C)c(O)c4c(O)c(c(/C=N/N5CCN(C)CC5)c(O)c4c3C2=O)NC(=O)/C(C)=C\C=C\[C@H](C)[C@H](O)[C@@H](C)[C@@H](O)[C@@H](C)[C@H](OC(C)=O)[C@@H]1C [RIFAMPIN] | 97 | 0.25 (≈ 0.304 µM) | – | – | – | – | – | – | – | – | – | – | –
2 | CCn1c(Cc2csc3nc(-c4ccc(Br)cc4)cn23)n[nH]c1=S | – | – | 8 (≈ 19 µM) | 32 (≈ 76.1 µM) | 16 (≈ 38.1 µM) | 16 (≈ 38.1 µM) | 64 (≈ 152 µM) | inactive | > 6.25 | 32 (≈ 76.1 µM) | 32 (≈ 76.1 µM) | > 64 | 64 (≈ 152 µM)
3 | S=c1[nH]nc(Cc2csc3nc(-c4ccc(Br)cc4)cn23)n1-c1ccc(Cl)cc1 | – | – | 32 (≈ 63.6 µM) | 64 (≈ 127 µM) | 32 (≈ 63.6 µM) | 32 (≈ 63.6 µM) | > 64 | inactive | > 6.25 | 64 (≈ 127 µM) | > 64 | > 64 | > 64
4 | C[C@H]1COc2c(N3CCN(C)CC3)c(F)cc3c(=O)c(C(=O)O)cn1c23.C[C@H]1COc2c(N3CCN(C)CC3)c(F)cc3c(=O)c(C(=O)O)cn1c23.O [LEVOFLOXACIN] | – | – | – | – | – | – | – | – | – | – | – | 0.5 | 0.12
5 | C[C@@H]1[C@H](O)[C@@H](C)/C=C/C=C/C=C/C=C/C=C/C=C/C=C/[C@H](O[C@@H]2O[C@H](C)[C@@H](O)[C@H](N)[C@@H]2O)C[C@@H]2O[C@](O)(C[C@@H](O)C[C@@H](O)[C@H](O)CC[C@@H](O)C[C@@H](O)CC(=O)O[C@H]1C)C[C@H](O)[C@H]2C(=O)O [AMPHOTERICIN B] | – | – | 0.25 (≈ 0.271 µM) | – | 0.5 (≈ 0.541 µM) | 0.5 (≈ 0.541 µM) | – | – | – | – | – | – | –
6 | CNc1nnc(Cc2csc3nc(-c4ccc(Br)cc4)cn23)s1 | – | – | 8 (≈ 19.7 µM) | 16 (≈ 39.4 µM) | 16 (≈ 39.4 µM) | 16 (≈ 39.4 µM) | > 64 | – | – | 32 (≈ 78.8 µM) | 16 (≈ 39.4 µM) | > 64 | > 64
7 | S=c1[nH]nc(Cc2csc3nc(-c4ccc(Br)cc4)cn23)n1-c1ccc(Br)cc1 | – | – | 32 (≈ 58.5 µM) | 64 (≈ 117 µM) | 64 (≈ 117 µM) | 64 (≈ 117 µM) | > 64 | inactive | > 6.25 | 64 (≈ 117 µM) | 32 (≈ 58.5 µM) | > 64 | > 64
8 | C=CCn1c(Cc2csc3nc(-c4ccc(Br)cc4)cn23)n[nH]c1=S | 1 | – | 32 (≈ 74 µM) | 64 (≈ 148 µM) | 64 (≈ 148 µM) | 64 (≈ 148 µM) | > 64 | – | > 6.25 | 64 (≈ 148 µM) | 64 (≈ 148 µM) | > 64 | > 64
9 | Cn1c(Cc2csc3nc(-c4ccc(Br)cc4)cn23)n[nH]c1=S | – | – | 16 (≈ 39.4 µM) | 32 (≈ 78.8 µM) | 8 (≈ 19.7 µM) | 16 (≈ 39.4 µM) | > 64 | inactive | > 6.25 | 32 (≈ 78.8 µM) | 32 (≈ 78.8 µM) | > 64 | > 64
10 | CCC(C)n1ncn(-c2ccc(N3CCN(c4ccc(OCC5COC(Cn6cncn6)(c6ccc(Cl)cc6Cl)O5)cc4)CC3)cc2)c1=O (configuration not stated) [ITRACONAZOLE] | – | – | – | 0.12 (≈ 0.17 µM) | – | – | – | – | – | 0.12 (≈ 0.17 µM) | 0.06 (≈ 0.085 µM) | – | –
11 | Cc1ccc(-n2c(Cc3csc4nc(-c5ccc(Br)cc5)cn34)n[nH]c2=S)cc1 | 4 | – | 16 (≈ 33.2 µM) | 16 (≈ 33.2 µM) | 16 (≈ 33.2 µM) | 16 (≈ 33.2 µM) | 64 (≈ 133 µM) | – | > 6.25 | 16 (≈ 33.2 µM) | 16 (≈ 33.2 µM) | 64 (≈ 133 µM) | 64 (≈ 133 µM)
12 | S=c1[nH]nc(Cc2csc3nc(-c4ccc(Br)cc4)cn23)n1-c1ccccc1 | 3 | – | 16 (≈ 34.2 µM) | 32 (≈ 68.3 µM) | 32 (≈ 68.3 µM) | 32 (≈ 68.3 µM) | > 64 | – | > 6.25 | 32 (≈ 68.3 µM) | 32 (≈ 68.3 µM) | > 64 | 64 (≈ 137 µM)
13 | CCNc1nnc(Cc2csc3nc(-c4ccc(Br)cc4)cn23)s1 | – | – | 8 (≈ 19 µM) | 32 (≈ 76.1 µM) | 16 (≈ 38.1 µM) | 16 (≈ 38.1 µM) | 32 (≈ 76.1 µM) | – | – | 64 (≈ 152 µM) | 64 (≈ 152 µM) | 64 (≈ 152 µM) | 64 (≈ 152 µM)
14 | CCCn1c(Cc2csc3nc(-c4ccc(Br)cc4)cn23)n[nH]c1=S | – | – | 8 (≈ 18.4 µM) | 64 (≈ 147 µM) | 16 (≈ 36.8 µM) | 16 (≈ 36.8 µM) | 64 (≈ 147 µM) | inactive | > 6.25 | 32 (≈ 73.7 µM) | 64 (≈ 147 µM) | > 64 | 64 (≈ 147 µM)
15 | CCCCn1c(Cc2csc3nc(-c4ccc(Br)cc4)cn23)n[nH]c1=S | – | – | 32 (≈ 71.4 µM) | 64 (≈ 143 µM) | 32 (≈ 71.4 µM) | 32 (≈ 71.4 µM) | 32 (≈ 71.4 µM) | inactive | > 6.25 | 32 (≈ 71.4 µM) | 64 (≈ 143 µM) | 64 (≈ 143 µM) | 32 (≈ 71.4 µM)
